Laboratory results taken from patent publication US20260151413A1, “ANTICANCER DRUG CONJUGATES” (Ariel Scientific Innovations Ltd., priority 2022, published 2026).

Columns and labels:
[1] = test system: 10 hematological cell-lines; experiment: In vitro cytotoxicity screening on the panel of hematological cell-lines (WST-1); conditions: for cytotoxic effect compared to the parental non-conjugated drug: chimera vs its parent drug; for effect on proliferation rate across the examined cell-lines: 10 hematological cell-lines, WST-1
Procedure: The above cells were cultured in RPMI medium (Gibco, Thermo Fisher Scientific Inc., USA). […] All media were supplemented with 10% heat-inactivated Fetal Bovine Serum (FBS, Biological industries, Israel), 2 mM glutamine (Biological industries, Israel) and 1% penicillin and streptomycin (Biological industries, Israel). Cells were cultured at 37° C. in a humidified incubator with 5% CO2.
Growth inhibition in hematological malignancies cell-lines was measured by tetrazolium WST-1 assay (Roche, Basel, Switzerland). Cells (1*10^4) were treated with various concentrations of the specific chimera or parental drug. After 48 h of incubation, 10 μl of WST-1 reagent was added to the plate and incubated for 1 h at 37° C., at which point the absorbance (450 nm) was measured in an ELISA plate reader (Synergy HTX multi-mode reader, Winooski, Vermont, USA).
MUTZ5 and MHH-CALL4; B-cell Acute lymphocytic leukemia (B-cell ALL) model. DND41; T-ALL model. KG-1a and OCI-AML-3; Acute myeloid leukemia (AML) model and HEL; erythroleukemia model.

MHH-CALL4 = experiment: WST-1 proliferation assay, MHH-CALL4; assay type: cell-based, human; conditions: WST-1, 48 hours of treatment
Procedure: (§1) Albert Pinhasov (Ariel University, Ariel, Israel). […] Granta cells were kindly provided by Prof.
(§2) Table 3 [resents the calculated IC50 values (μM) for each chimera in different hematological malignancies cell-lines. The proliferation rate was measured by WST-1 assay after 48 hours of treatment. The result shown for each concentration point represents the […]

HEL = experiment: WST-1 proliferation assay, HEL; assay type: cell-based, human; conditions: WST-1, 48 hours of treatment
Procedure: as §1, §2

KG-1a = experiment: WST-1 proliferation assay, KG-1a; assay type: cell-based; conditions: WST-1, 48 hours of treatment
Procedure: as §1, §2

GRANTA = experiment: WST-1 proliferation assay, GRANTA; assay type: cell-based; conditions: WST-1, 48 hours of treatment
Procedure: as §1, §2

Rec-1 = experiment: WST-1 proliferation assay, Rec-1; assay type: cell-based, human; conditions: WST-1, 48 hours of treatment
Procedure: as §1, §2

MUTZ5 = experiment: WST-1 proliferation assay, MUTZ5; assay type: cell-based, human; conditions: WST-1, 48 hours of treatment
Procedure: as §1, §2

OCI-AML3 = experiment: WST-1 proliferation assay, OCI-AML3; assay type: cell-based; conditions: WST-1, 48 hours of treatment
Procedure: as §1, §2

DND41 = experiment: WST-1 proliferation assay, DND41; assay type: cell-based, human; conditions: WST-1, 48 hours of treatment
Procedure: as §1, §2

JEKO-1 = experiment: WST-1 proliferation assay, JEKO-1; assay type: cell-based, human; conditions: WST-1, 48 hours of treatment
Procedure: as §1, §2

MINO = experiment: WST-1 proliferation assay, MINO; assay type: cell-based, human; conditions: WST-1, 48 hours of treatment
Procedure: as §1, §2

[2] = test system: triple negative breast cancer (TNBC) MDA 231 cells
Procedure: Five-week-old athymic Nude-Foxn 1nu male mice (ENVIGO Labs, Nes Ziona, Israel) were subcutaneously inoculated on the dorsal left side with […] (1×10^6 cell) into nu/nu mice, 0.2 mL per mouse) and tumors allowed to establish over time. When tumor volume reached 100 mm^3, Doxorubicin (Dox) and Doxorubizen (Chimera 9) were administered intraperitoneally (ip). Animals were removed from an experiment if either of the following conditions were fulfilled: reduction of 20% or more body weight; tumor volume>0.55 cm^3. The tumor dimensions were measured using a Vernier caliper and the volume was calculated according to the equation: Volume (mm^3) ¼ length×width×width×½ three times per week. The in vivo experiments were approved by the Animal Ethics Committee (Authorization number IL-179-06-19).
Chimera 9 was also evaluated for its effect on breast cancer model. For this evaluation, […] nude female (6-8 weeks) mice (groups 1, 2, two mice per group, groups 3, 4, 5 three mice per group) were inoculated with triple negative breast cancer (TNBC) MDA 231 cells. Group 1 was used as the control for tumor growth. After 10 days, mice were […] (ip) administered with Doxorubicin (groups 2 and 4) and Chimera 9 (Doxorubizen) (groups 3 and 5) in the following regime: ip administration of 2.5 mg/kg Doxorubicin once per week (group 2) and three sequential days per week (group 4); ip administration of 3.5 mg/kg chimera 9 once per week (group 3) and three sequential days per week (group 5). Overall experiment carried out for 5 weeks and 4 days, when the tumor volumes for all the groups were monitored. Tumors were then resected and measured.

[3] = test system: aggressive papillary thyroid cancer cells; experiment: Proliferation of aggressive papillary thyroid cancer cells; assay type: cell-based; conditions: 10 nM and 100 nM, with respect to DMSO control
Procedure: Chimera 9 (also referred to herein as Doxorubizen) was evaluated in two different concentrations (10 nM and 100 nM) on aggressive papillary thyroid cancer and with respect to the parent anticancer drug Doxorubicin.

[4] = test system: Human primary anaplastic thyroid cancer (ATC) cells; experiment: Vitality/proliferation of primary anaplastic thyroid cancer cells; assay type: cell-based; conditions: 100 nM, 250 nM, 500 nM; 3, 5 and 7 days
Procedure: Human primary anaplastic thyroid cancer (ATC) cells were treated with chimera 9 (100 nM, 250 nM, and 500 nM), or Doxorubicin (100 nM, 250 nM, and 500 nM), or with vehicle, for 3, 5, and 7 days.

[5] = previous study; cited from earlier work

## COC(=O)N(C)/N=N/c1ccc(COc2c(OC)cc([C@@H]3c4cc5c(cc4[C@@H](OC4O[C@@H]6CO[C@@H](C)O[C@H]6[C@H](O)[C@H]4O)[C@H]4COC(=O)[C@H]34)OCO5)cc2OC)cc1 (some centres unmarked) [Chimera 3]
[1]
  cytotoxic effect compared to the parental non-conjugated drug: did not show prevalence over Etoposide
MHH-CALL4
  IC50: > 50 µM
HEL
  IC50: 43.1 µM
KG-1a
  IC50: > 50 µM
GRANTA
  IC50: 42.1 µM
Rec-1
  IC50: 23.7 µM
MUTZ5
  IC50: 34.8 µM
OCI-AML3
  IC50: 10.2 µM
DND41
  IC50: > 50 µM
JEKO-1
  IC50: 28.6 µM
MINO
  IC50: 30.3 µM

## COC(=O)N(C)/N=N/c1ccc(CNc2nc3ccc(OC(F)(F)F)cc3s2)cc1 [Chimera 7]
MHH-CALL4
  IC50: 5.25 µM
HEL
  IC50: 2.37 µM
KG-1a
  IC50: 23 µM
GRANTA
  IC50: 43 µM
Rec-1
  IC50: 18 µM
MUTZ5
  IC50: 1.81 µM
OCI-AML3
  IC50: 14.2 µM
DND41
  IC50: 2.37 µM
JEKO-1
  IC50: > 50 µM
MINO
  IC50: 7.8 µM

## COC(=O)N(C)/N=N/c1ccc(COc2cc(/C=C\c3cc(OC)c(OC)c(OC)c3)ccc2OC)cc1 [Chimera 4, (E)-methyl3-(4-((2-methoxy-5-((Z)-3,4,5-trimethoxystyryl)phenoxy)methyl)phenyl)-1-methyltriaz-2-ene-1-carboxylate]
[1]
  effect on proliferation rate across the examined cell-lines: decreased the proliferation rate in at least 3 cell-lines
  cytotoxic effect compared to the parental non-conjugated drug: less than superior cytotoxic effect

## COC(=O)N(C)/N=N/c1ccc(CNc2nc3ccc(OC(F)(F)F)cc3s2)cc1 [Chimera 7, (E)-methyl1-methyl-3-(4-(((6-(trifluoromethoxy)benzo [d]thiazol2yl)amino)methyl)phenyl) triaz-2-ene-1-carboxylate]
[1]
  effect on proliferation rate across the examined cell-lines: decreased the proliferation rate in at least 3 cell-lines
  cytotoxic effect compared to the parental non-conjugated drug: reduced proliferation rate of numerous cell-lines

## COC(=O)N(C)/N=N/c1ccc(CNc2cccc3c2CN(C2CCC(=O)NC2=O)C3=O)cc1 (centres unmarked) [Chimera 2, (E)-methyl 3-(4-(((2-(2,6-dioxopiperidin-3-yl)-1-oxoisoindolin-4-yl)amino)methyl)phenyl)-1-methyltriaz-2-ene-1-carboxylate]
[1]
  effect on proliferation rate across the examined cell-lines: decreased the proliferation rate in at least 3 cell-lines

## CCc1c2c(nc3ccc(OCc4ccc(/N=N\N(C)C(=O)OC)cc4)cc13)-c1cc3c(c(=O)n1C2)COC(=O)[C@]3(O)CC [Chimera 1, (S,Z)-methyl3-(4-(((4,11-diethyl-4-hydroxy-3,14-dioxo-3,4,12,14-tetrahydro-1H pyrano [3′,4′:6,7]indolizino[1,2-b]quinolin-9-yl)oxy)methyl)phenyl)-1-methyltriaz-2-ene-1-carboxylate]
[1]
  effect on proliferation rate across the examined cell-lines: inhibited the proliferation rate in all the examined cell-lines
  cytotoxic effect compared to the parental non-conjugated drug: less than superior cytotoxic effect

## COc1cccc2c1C(=O)c1c(O)c3c(c(O)c1C2=O)C[C@@](O)(C(=O)CO)C[C@@H]3O[C@H]1C[C@H](N)[C@H](O)[C@H](C)O1 [Doxorubicin, reference compound]
[2]; Group 2: ip 2.5 mg/kg once per week
  day of sacrifice due to large tumor volumes and severe animal conditions: 12 days
[2]; Group 4: ip 2.5 mg/kg, three sequential days per week
  day of death due to over toxication: 20 days
[3]
  proliferation of thyroid cancer cells: no effect on cell proliferation
[4]
  vitality/proliferation of primary human ATC cells: reduced the vitality/proliferation of primary human ATC cells significantly

## COC(=O)N(C)/N=N/c1ccc(COC(=O)Nc2cc3c4c(cccc4c2)C(=O)N(CCN(C)C)C3=O)cc1 [Amonafidazene]
[5]
  biological parameters in vitro and in vivo compared with parent Amonafide: superior in all biological parameters

## COC(=O)N(C)/N=N/c1ccc(Cn2cc(F)c(=O)[nH]c2=O)cc1 [Chimera 5, (E)-methyl3-(4-((5-fluoro-2,4-dioxo-3,4-dihydropyrimidin-1(2H)-yl)methyl)phenyl)-1-methyltriaz-2-ene-1-carboxylate]
[1]
  effect on proliferation rate across the examined cell-lines: decreased the proliferation rate in at least 3 cell-lines

## CCc1c2c(nc3ccc(OCc4ccc(N=NN(C)C(=O)OC)cc4)cc13)-c1cc3c(c(=O)n1C2)COC(=O)C3(O)CC (centres unmarked) [Chimera 1]
MHH-CALL4
  IC50: 1.2 µM
HEL
  IC50: 0.55 µM
KG-1a
  IC50: 1.04 µM
GRANTA
  IC50: 8.42 µM
Rec-1
  IC50: 0.59 µM
MUTZ5
  IC50: 3.02 µM
OCI-AML3
  IC50: 12.3 µM
DND41
  IC50: 1.99 µM
JEKO-1
  IC50: 0.36 µM
MINO
  IC50: 0.63 µM

## COC(=O)N(C)/N=N/c1ccc(Cn2cc(F)c(=O)[nH]c2=O)cc1 [Chimera 5]
MHH-CALL4
  IC50: 32.4 µM
HEL
  IC50: 2.72 µM
KG-1a
  IC50: 27.7 µM
GRANTA
  IC50: > 50 µM
Rec-1
  IC50: 0.13 µM
MUTZ5
  IC50: 44.6 µM
OCI-AML3
  IC50: 22.7 µM
DND41
  IC50: 30.9 µM
JEKO-1
  IC50: > 50 µM
MINO
  IC50: 29.7 µM

## COC(=O)N(C)/N=N/c1ccc(CSc2ncnc3nc[nH]c23)cc1 [Chimera 6, (E)-methyl 3-(4-(((7H-purin-6-yl)thio)methyl)phenyl)-1-methyltriaz-2-ene-1-carboxylate]
[1]
  effect on proliferation rate across the examined cell-lines: decreased the proliferation rate in at least 3 cell-lines

## COC(=O)N(C)/N=N/c1ccc(CNc2cccc3c2CN(C2CCC(=O)NC2=O)C3=O)cc1 (centres unmarked) [Chimera 2]
MHH-CALL4
  IC50: 24 µM
HEL
  IC50: 1.17 µM
KG-1a
  IC50: 46 µM
GRANTA
  IC50: > 50 µM
Rec-1
  IC50: 14.2 µM
MUTZ5
  IC50: 47.5 µM
OCI-AML3
  IC50: 17.1 µM
DND41
  IC50: > 50 µM
JEKO-1
  IC50: 22.8 µM
MINO
  IC50: 5.7 µM

## COC(=O)N(C)/N=N/c1ccc(CSc2ncnc3nc[nH]c23)cc1 [Chimera 6]
MHH-CALL4
  IC50: 16.6 µM
HEL
  IC50: 13.5 µM
KG-1a
  IC50: 39.2 µM
GRANTA
  IC50: > 50 µM
Rec-1
  IC50: 20.5 µM
MUTZ5
  IC50: 31 µM
OCI-AML3
  IC50: 8.76 µM
DND41
  IC50: > 50 µM
JEKO-1
  IC50: 39.5 µM
MINO
  IC50: 6.88 µM

## COC(=O)N(C)/N=N/c1ccc(COc2cc(/C=C\c3cc(OC)c(OC)c(OC)c3)ccc2OC)cc1 [Chimera 4]
MHH-CALL4
  IC50: 21.6 µM
HEL
  IC50: 1.63 µM
KG-1a
  IC50: 4.72 µM
GRANTA
  IC50: 41.5 µM
Rec-1
  IC50: 0.13 µM
MUTZ5
  IC50: 39.8 µM
OCI-AML3
  IC50: > 50 µM
DND41
  IC50: 27.6 µM
JEKO-1
  IC50: 13.8 µM
MINO
  IC50: 0.69 µM

## COC(=O)N(C)/N=N/c1ccc(CNc2cc3c4c(cccc4c2)C(=O)N(CCN(C)C)C3=O)cc1 [Chimera 8]
MHH-CALL4
  IC50: 36 µM
HEL
  IC50: 1.97 µM
KG-1a
  IC50: 19.1 µM
GRANTA
  IC50: > 50 µM
Rec-1
  IC50: > 50 µM
MUTZ5
  IC50: 10.3 µM
OCI-AML3
  IC50: 12.7 µM
DND41
  IC50: 20.9 µM
JEKO-1
  IC50: 7.12 µM
MINO
  IC50: 13.3 µM
